Data on 1 compound can be found in PMC4499133, “ATP-dependent motor activity of the transcription termination factor Rho from Mycobacterium tuberculosis” (Nucleic Acids Research, 2015).

Molecules are shown by their SMILES.

The target in the assay is T1, MtbRho (transcription termination factor Rho) (Mycobacterium tuberculosis, UniProt P9WHF3).
T1 construct: WT MtbRho, N-terminal His tag, hexamer
Put plainly: biochemical.

T1 sequence (P9WHF3 whole entry): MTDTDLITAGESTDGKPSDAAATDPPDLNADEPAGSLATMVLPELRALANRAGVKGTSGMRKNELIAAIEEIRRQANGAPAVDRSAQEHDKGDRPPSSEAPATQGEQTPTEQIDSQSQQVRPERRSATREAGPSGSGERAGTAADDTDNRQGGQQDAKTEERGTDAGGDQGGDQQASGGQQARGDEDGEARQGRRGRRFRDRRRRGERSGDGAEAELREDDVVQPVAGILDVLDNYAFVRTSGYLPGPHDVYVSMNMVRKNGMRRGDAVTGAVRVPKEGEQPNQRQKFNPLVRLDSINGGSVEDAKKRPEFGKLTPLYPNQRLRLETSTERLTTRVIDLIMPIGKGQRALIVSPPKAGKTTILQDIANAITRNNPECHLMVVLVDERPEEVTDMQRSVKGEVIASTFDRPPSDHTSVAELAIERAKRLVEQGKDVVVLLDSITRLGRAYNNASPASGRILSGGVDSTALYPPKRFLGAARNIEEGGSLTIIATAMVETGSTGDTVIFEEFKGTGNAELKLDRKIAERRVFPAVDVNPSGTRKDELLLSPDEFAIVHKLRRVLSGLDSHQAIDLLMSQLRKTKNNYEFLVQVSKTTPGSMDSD

The term IC50 denotes the point on the concentration scale where inhibition reaches its midpoint. High values mean a need for much substance, low ones inhibition by little substance. In turn, `C=C1CCO[C@]2([C@@H](O)[C@@](C)(O)CO)NC(=O)[C@@]1(O)NC2=O` [BCM, bicyclomycin] showed an IC50 of 157 ± 20 µM.
